Assay [1] concerns cocktail of four freeze-dried salmonella strains. Nature of the assay: Peroxypropionic acid efficacy against Salmonella in swine feed. The class given is cell-based, Salmonella typhimurium, senftenberg, montevideo, enteritidis. Conditions: for Average CFU/g feed / Log CFU/g / Total CFU: 4 h; for Total counts in CFU at 4 h (n = 5): swine mash feed, PPA with sodium phosphate buffer (9:1), ~pH 7-8, five replicate cells. The source says:
Swine mash feed contains a bigger particle size of corn-soy matrix compared to broiler mash feed. Thus, it could pose a challenge to expect the same antimicrobial efficacy as observed in broiler feed due to the shielding effect. Therefore, to maximize the efficacy of the peroxypropionic acid on the swine feed, an optimal droplet size of the peroxypropionic acid was required to ensure maximum distribution of the product onto the feed. Swine mash feed of 25 g was taken in five individual bags and inoculated with 10 mg cocktail of four freeze-dried salmonella strains of Salmonella typhimurium ATCC 14028, Salmonella senftenberg ATCC 43485, Salmonella montevideo ATCC 8387, and Salmonella enteritidis ATCC 13076 in such a way that the total infection in the feed was ˜2 logs. Then, the feed samples were treated with peroxypropionic acid solution (˜17% PPA, 7% H2O2) and sodium phosphate buffer premix (9:1 ratio) at 1.5 kg/T, 3 Kg/T, and 6 Kg/T. The feed was enumerated completely for Salmonella count using EB plates at 4 h after treatment. Two untreated controls, NC-A and NC-B were kept as negative controls to represent the infection in the feed.

Assay [2] has as its system Salmonella enterica isolated from layer feed. The experiment in a line: Preliminary in vitro feed assay, Salmonella count in contaminated feed over 21 days. The class given is cell-based. Conditions: 15 kg/ton; pre-treatment Day 0. On the procedure:
Preparation of the treatment. Perpropionic acid, peracetic acid, mixture of peroctanoic acid and perdecanoic acid (PC8/PC10) and Sal CURB products were used without any further dilution or mixing. The peroxy mix was prepared by mixing peracetic and perpropionic acid in 1:1 weight ratio. Briefly, 1.0 g of peroxy mix was prepared by weighing 0.5 g of peracetic acid into 0.5 g of perpropionic acid. The mixture was mixed well prior to usage. Similar procedure was followed in the preparation of 3% sulphuric acid (where […] of water) and peroxy mix with ester (where 0.9 g of peroxy mix (prepared with peracetic and propionic acid) was mixed with 0.1 g of propylene glycol propionate esters). […] Briefly, 1 mL of 75% phosphoric acid was added to 10 mL of Pro-Oxine solution and mixed well. The mixture is covered and let to stand for 10 mins prior to usage.
Preparation of stock feed inoculum. The researchers prepared contaminated feed from known methods, where Salmonella enterica isolated from layer feed was revived from the glycerol stock by plating a loopful of culture onto the TSAYE (i.e., tryptone soya agar supplemented with 0.6% yeast extract (CM0131B; Oxoid) prepared as per recommended) and incubate for 18-24 hours at 37° C. Following which, the colonies were collected aseptically with saline solution (i.e., 0.9% sodium chloride (V800372; Sigma-Aldrich) prepared in deionized water), yielding approximately 5 mL of biomass suspension. The biomass suspension was diluted accordingly to meet the contamination level required for the stock inoculum. No dilution was required for high contamination level of ca. 10^7 cfu/g whereas biomass suspension was diluted 1000 times to achieve lower contamination level of ca. 10^4 cfu/g in the stock inoculum. The stock feed inoculum was prepared by adding the biomass suspension (5 mL) into 100 g of sterile feed (made up with 7:3 ground corn and soybean, autoclaved at 121° C. for one hour and dried for 24 hours at 65° C.) with a syringe and needle, and homogenously mixed after. The stock feed inoculum was stored at 25° C. for a week. Salmonella count of the stock inoculum was determined using conventional plating method with XLD agar (i.e., Xylose lysine deoxycholate (CM0469B; Oxoid)) and BPW (i.e., buffered peptone water (CM0509B; Oxoid)) prior to usage. Briefly, three grams of stock feed inoculum was weighed into a 50 mL conical tube, diluted with 27 mL of BPW, homogenously mixed and left to stand for 30 minutes. The feed suspension was then serial diluted to the appropriate dilutions. An aliquot of 0.1 mL of the feed suspension was plated onto the agar at each dilution and incubated at 37° C. for 18-24 hours prior to enumeration. Plating was carried out in triplicates. Blank stock feed was prepared by adding 5 mL of saline into 100 g of sterile feed.
Preparation of the feed inoculum. The stock feed inoculum was diluted approximately 100 times with sterile feed where three grams of stock inoculum was added into 307 g of sterile feed and kept at 37° C. for 24 hours. The Salmonella count of the feed was determined prior to treatment. Briefly, 90 mL of BPW was added into 10 g of feed sample in a sterile bag (10^−1 dilution). The mixture was homogenously mixed with a stomacher at medium speed for three minutes and left to stand for 30 minutes. The feed supernatant was serial diluted to appropriate dilutions for plating. The plates were incubated at 37° C. for 18-24 hours prior to counting. If low Salmonella count was expected, the sample size was increased to 1 mL by plating 300, 300 and 400 uL onto three plates in triplicates for […] detection limit (10 cfu/g). Blank feed was prepared by adding three grams of blank stock feed into 307 g of sterile feed. In addition, an extra contaminated feed was prepared as a control.
Treatment of contaminated feed. […]

“And” between values parts separate entries of the source, which are not always exact repeats. Equal entries are not always repeated.

With `CCC(=O)OO` [Perpropionic acid, perpropionic acid], in assay [1] (1.5 Kg/T), the “Average CFU/g feed” value was 18 CFU/g feed, the “Log CFU/g” value came to 1.26 Log CFU/g and the “Total CFU” value came to 90 CFU. Besides, in assay [1] (3 Kg/T), the “Average CFU/g feed” value turned out to be 0 CFU/g feed, the “Log CFU/g” value came to 0.00 Log CFU/g, the “Total CFU” value was 0 CFU and the “Total counts in CFU at 4 h (n = 5)” value is listed as 0 CFU. Further, in assay [1] (6 Kg/T), the “Average CFU/g feed” value amounted to 0 CFU/g feed, the “Log CFU/g” value is 0.00 Log CFU/g, the “Total CFU” value stood at 0 CFU and the “Total counts in CFU at 4 h (n = 5)” value was 0 CFU. The “Total counts in CFU at 4 h (n = 5)” value in assay [1] (1.5 Kg/T, listed as PPA) was 20 CFU and 10 CFU (2×) and 50 CFU and 0 CFU. In assay [2], the Salmonella count turned out to be 5.62 log cfu/g.

The values above are taken from patent publication US20250008983A1, “COMPOSITIONS CONTAINING PEROXYACIDS TO CONTROL PATHOGEN GROWTH IN ANIMAL FEED AND RELATED METHODS” (KEMIN INDUSTRIES, INC., priority 2023, published 2025).
